This is an account of results in paper PMC10535741, “Styrylpyridinium Derivatives for Fluorescent Cell Imaging” (Pharmaceuticals, 2023).

This series in a line: in vitro. In kind it is cell-based, murine. The note with it: mouse. An excerpt:
For selected compounds, 6a–6f, we performed a determination of the cytotoxicity in a wider variety of cancer and non-cancerous cell lines (see Table S2, Supplementary Materials) in order to learn the characteristic features of selectivity or the similarity of biological properties.
The HT-1080 (human connective tissue fibrosarcoma, ATCC® CCL-121™), MH-22A (mouse hepatocarcinoma, ECACC Cat. No. 96121721), A-549 (human lung carcinoma, ATCC® CCL-185™), NIH3T3 (Swiss Albino mouse embryo fibroblast, ECACC Cat. No. 93061524), Hek293 (human embryonic kidney, ATCC® CRL-1573™), BHK-21 (Syrian hamster kidney, ATCC® CCL-10™), A-431 (human epidermoid carcinoma, ATCC® CRL-1555™), Saos-2 (human osteosarcoma, ATCC® HTB-85™), HeLa (human epitheloid cervix carcinoma, ATCC® CCL-2™), U937 (human myeloid leukaemia, ATCC® CRL-1593.2™), C6 (rat glioma, ATCC® CCL-107™), and B16-F10 (murine melanoma, ATCC® CRL-6475™) cell lines were obtained from the American Type Culture Collection (ATCC) and European Collection of Authenticated Cell Cultures (ECACC).
HT-1080, MH-22A, A-549, NIH3T3, BHK-21, A-431, HeLa, and B16-F10 cells were cultured in Dulbecco’s Modified Eagle’s Medium (DMEM) with 2 mM glutamine and 10% foetal bovine serum (FBS). Hek293 cells were cultured in Eagle’s Minimum Essential Medium with 10% foetal bovine serum. U937 cells were cultured in RPMI-1640 Medium with 2 mM glutamine and 10% foetal bovine serum. C6 cells were cultured in Ham’s F12 Medium with 2 mM glutamine and 10% foetal bovine serum. Saos-2 cells were cultured in McCoy’s 5a Medium with 2 mM glutamine and 10% foetal bovine serum. The cells were incubated at 37 °C with 5% CO2, 95% air, and complete humidity. Once ~90% confluence was reached, they were detached using 0.05% trypsin/EDTA and counted. The cells were plated at optimally determined densities for the logarithmic phase of growth. These cells were then suspended at a concentration of 4000 cells/well for HT-1080, MH-22A, A-549, NIH3T3, BHK-21, A-431, HeLa, B16-F10, Hek293, and Saos-2 cells and a concentration of 9000 cells/well for U937, C6, Hek293, and GM08402 cells and added onto a 96-well plate. For background absorption, some wells remained cell free, i.e., as a blank control. Cells were incubated for 72 h at 37 °C and 5% CO2 where they were exposed to a media containing serial dilutions of the investigated compounds (n = 3). Cell viability was measured using the 3-(4,5-dimethylthiazol-2-yl)-2,5-diphenyl-tetrazolium bromide (MTT) assay. In brief, after incubating with compounds, the culture medium was removed and fresh medium with 0.2 mg/mL MTT was added to each well of the plate. After incubation (3 h, 37 °C, 5% CO2), the medium with MTT solution was removed and replaced with 200 µL DMSO and 25 µL Sorenson’s glycine buffer (glycine 0.1 M, NaCl 0.1 M, pH: 10.5 with 0.1 M NaOH). The plate was shaken for 15 min at room temperature and the optical density (OD) of the wells was determined using a multichannel spectrophotometer (Thermo Scientific Multiskan EX) at 540 nm. The quantity of the control cells was taken in calculations as 100%. The IC50 value was calculated using the program Graph Pad Prism® 3.0. […]

[1] abbreviates: cancer cell line, MTT, 72 h, read-out: Cytotoxicity IC50 B16-F10.

Read-outs that look alike come from different tables or passages of the source.

In general, IC50 refers to the concentration needed to halve the response being measured. For the compound `CCCCCCCCCCCC[n+]1ccc(C=Cc2cc(OC)c(OC)c(OC)c2)cc1.[Br-]` [Compound 6a, 4-(3,4,5-trimethoxystyryl)-N-dodecylpyridinium bromide], the concentration for half-maximal inhibition (IC50) at 72 h under setting [1] came out at 0.8 µg/mL.
The compound `CCCCCCCCCCCCCCCC[n+]1ccc(C=CC=Cc2ccc(OC)cc2)cc1.[Br-]` [Compound 6c, 1-hexadecyl-4-(4-(4-methoxyphenyl)buta-1,3-dien-1-yl)pyridin-1-ium bromide] displayed an IC50 at 72 h of 0.49 µg/mL.
With `CCCCCCCCCCCC[n+]1ccc(C=Cc2cc3c4c(c2)CCCN4CCC3)cc1.[Br-]` [Compound 6d, 1-dodecyl-4-(2-(2,3,6,7-tetrahydro-1H,5H-pyrido[3,2,1-ij]quinolin-9-yl)vinyl)pyridin-1-ium bromide], the IC50 at 72 h under setting [1] worked out at 0.113 µg/mL.
The same measure, in the same setting: the figure for `CCCCCCCCCCCCCCCC[n+]1ccc(C=CC=Cc2cc3c4c(c2)CCCN4CCC3)cc1.[Br-]` [Compound 6e, 1-hexadecyl-4-(4-(2,3,6,7-tetrahydro-1H,5H-pyrido[3,2,1-ij]quinolin-9-yl)buta-1,3-dien-1-yl)pyridin-1-ium bromide] is 2.9 µg/mL.
